# Data taken from patent publication US10532995B2, “Substituted pyrazole compounds as serine protease inhibitors” (VERSEON CORPORATION, priority 2015, dated 2020).
# How the values were obtained:
# malignant breast tumors = conditions: cited from earlier work
# Human thrombin = target: T1, Human thrombin (Homo sapiens, UniProt P00734); experiment: Thrombin protease activity inhibition, chromogenic substrate S-2238; type: biochemical; conditions: 3 nM thrombin, 125 μM S-2238, 10 min pre-incubation, RT
# T1 construct: purchased Haematologic Technologies Inc
# Method in brief: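 Ten-point, three-fold serial dilutions of compound tested against 3 nM enzyme at RT in Tris buffer (0.05 M, pH 7.4) with 0.015 M NaCl and 0.01% PEG-8000.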
SMILES,IC50 (Human thrombin) [nM],further results
CCCCCCOC(=O)NC(=N)c1ccc(NCc2nc3cc(C(=O)N(CCC(=O)OCC)c4ccccn4)ccc3n2C)cc1 [dabigatran etexilate],–,"reduction in tumor volume (malignant breast tumors; at 4 weeks, treated mice): 50%; weight loss in treated mice (malignant breast tumors; at 4 weeks): no weight loss; reduction of tumor cells in the blood and liver micrometastases (malignant breast tumors; treated mice): 50-60%"
"COc1ccccc1C(=O)n1nc(C2CCCN2)cc1NCc1ccc(Cl)s1 (stereo not drawn) [Entry 159, N-[(5-chlorothiophen-2-yl)methyl]-1-(2-methoxybenzoyl)-3-(pyrrolidin-2-yl)-1H-pyrazol-5-amine]",100 to 1000,–
"CN(C)C(=O)N1CCC(c2cc(NCc3ccc(Cl)s3)n(C(=O)N(C)C)n2)CC1 [Entry 136, 4-(5-[(5-chlorothiophen-2-yl)methyl]amino-1-(dimethylcarbamoyl)-1H-pyrazol-3-yl)-N,N-dimethylpiperidine-1-carboxamide]",> 100000,–
"CC(C)(C)OC(=O)N1CCCC(C)(c2cc(NCc3ccc(Cl)s3)n(C(=O)c3ccsc3)n2)C1 (stereo not drawn) [Entry 288, tert-butyl 3-(5-[(5-chlorothiophen-2-yl)methyl]amino-1-(thiophene-3-carbonyl)-1H-pyrazol-3-yl)-3-methylpiperidine-1-carboxylate]",< 100,–
"COc1ccccc1C(=O)n1nc(C2CCCN2C(=O)C(C)C)cc1NCc1ccc(Cl)s1 (stereo not drawn) [Entry 91, 1-[2-(5-[(5-chlorothiophen-2-yl)methyl]amino-1-(2-methoxybenzoyl)-1H-pyrazol-3-yl)pyrrolidin-1-yl]-2-methylpropan-1-one]",100 to 1000,–
"CC1(c2cc(NCc3ccc(Cl)s3)n(C(=O)c3ccsc3)n2)CCCN1 (stereo not drawn) [Entry 177, N-[(5-chlorothiophen-2-yl)methyl]-3-(2-methylpyrrolidin-2-yl)-1-(thiophene-3-carbonyl)-1H-pyrazol-5-amine; formic acid]",< 100,–
"O=C(c1ccsc1)n1nc(C2CCCNC2)cc1NCc1ccc(Cl)s1 (stereo not drawn) [Entry 185, N-[(5-chlorothiophen-2-yl)methyl]-3-(piperidin-3-yl)-1-(thiophene-3-carbonyl)-1H-pyrazol-5-amine]",100 to 1000,–
"Clc1ccc(CNc2cc(C3CCN(CCc4ccccn4)CC3)n[nH]2)s1 [Entry 224, N-[(5-chlorothiophen-2-yl)methyl]-3-1-[2-(pyridin-2-yl)ethyl]piperidin-4-yl-1H-pyrazol-5-amine]",> 100000,–
"COc1ccccc1C(=O)n1nc(C2(C)CCCN2)cc1NCc1ccc(Cl)s1 (stereo not drawn) [Entry 152, N-[(5-chlorothiophen-2-yl)methyl]-1-(2-methoxybenzoyl)-3-(2-methylpyrrolidin-2-yl)-1H-pyrazol-5-amine; formic acid]",100 to 1000,–
"Clc1ccc(CNc2cc(C3CCN(Cc4cccnc4)CC3)n[nH]2)s1 [Entry 211, N-[(5-chlorothiophen-2-yl)methyl]-3-[1-(pyridin-3-ylmethyl)piperidin-4-yl]-1H-pyrazol-5-amine]",> 100000,–
"O=S(=O)(N1CCOCC1)N1CCC(c2cc(NCc3ccc(Cl)s3)[nH]n2)CC1 [Entry 207, N-[(5-chlorothiophen-2-yl)methyl]-3-[1-(morpholine-4-sulfonyl)piperidin-4-yl]-1H-pyrazol-5-amine]",> 100000,–
"Clc1ccc(CNc2cc(C3CCN(Cc4cnco4)CC3)n[nH]2)s1 [Entry 194, N-[(5-chlorothiophen-2-yl)methyl]-3-[1-(1,3-oxazol-5-ylmethyl)piperidin-4-yl]-1H-pyrazol-5-amine]",> 100000,–
"COCC(C)(C)C(=O)n1nc(C2(C)CCCN(C(=O)OC(C)(C)C)C2)cc1NCc1ccc(Cl)s1 (stereo not drawn) [Entry 284, tert-butyl 3-(5-[(5-chlorothiophen-2-yl)methyl]amino-1-(3-methoxy-2,2-dimethylpropanoyl)-1H-pyrazol-3-yl)-3-methylpiperidine-1-carboxylate]",100 to 1000,–
"CN(C)C(=O)N1CCC(c2cc(NCc3ccc(Cl)s3)[nH]n2)CC1 [Entry 137, 4-(5-[(5-chlorothiophen-2-yl)methyl]amino-1H-pyrazol-3-yl)-N,N-dimethylpiperidine-1-carboxamide]",> 100000,–
"COCC(C)(C)C(=O)n1nc(C2(C)CCCNC2=O)cc1NCc1ccc(Cl)s1 (stereo not drawn) [Entry 120, 3-(5-[(5-chlorothiophen-2-yl)methyl]amino-1-(3-methoxy-2,2-dimethylpropanoyl)-1H-pyrazol-3-yl)-3-methylpiperidin-2-one]",1000 to 10000,–

# Continued, in another order:
IC50 (Human thrombin) [nM],SMILES,further results
> 100000,"Clc1ccc(CNc2cc(C3CCCO3)n[nH]2)s1 (stereo not drawn) [Entry 184, N-[(5-chlorothiophen-2-yl)methyl]-3-(oxolan-2-yl)-1H-pyrazol-5-amine]",–
100 to 1000,"C=CCOC(=O)N1CCN(C(=O)CN2CCOCC2)CC1c1cc(NCc2ccc(Cl)s2)n(C(=O)c2cscn2)n1 (stereo not drawn) [Entry 241, prop-2-en-1-yl 2-(5-[(5-chlorothiophen-2-yl)methyl]amino-1-(1,3-thiazole-4-carbonyl)-1H-pyrazol-3-yl)-4-[2-(morpholin-4-yl)acetyl]piperazine-1-carboxylate]",–
1000 to 10000,"O=S(=O)(c1ccccc1)N1CCC(c2cc(NCc3ccc(Cl)s3)[nH]n2)CC1 [Entry 130, 3-[1-(benzenesulfonyl)piperidin-4-yl]-N-[(5-chlorothiophen-2-yl)methyl]-1H-pyrazol-5-amine]",–
100 to 1000,"C=CCOC(=O)N1CCN(C(=O)N2CCOCC2)CC1c1cc(NCc2ccc(Cl)s2)n(C(=O)c2cscn2)n1 (stereo not drawn) [Entry 240, prop-2-en-1-yl 2-(5-[(5-chlorothiophen-2-yl)methyl]amino-1-(1,3-thiazole-4-carbonyl)-1H-pyrazol-3-yl)-4-(morpholine-4-carbonyl)piperazine-1-carboxylate]",–
> 100000,"C=CCOC(=O)N1CCCC1c1cc(NCc2ccc(Cl)s2)[nH]n1 (stereo not drawn) [Entry 253, prop-2-en-1-yl 2-(5-[(5-chlorothiophen-2-yl)methyl]amino-1H-pyrazol-3-yl)pyrrolidine-1-carboxylate]",–
> 100000,"C=CCOC(=O)N1CCC(c2n[nH]c(NCc3ccc(Cl)s3)c2F)CC1 [Entry 269, prop-2-en-1-yl 4-(5-[(5-chlorothiophen-2-yl)methyl]amino-4-fluoro-1H-pyrazol-3-yl)piperidine-1-carboxylate]",–
100 to 1000,"CC(C)(CO)C(=O)n1nc(C2CCN(CC(=O)O)CC2)cc1NCc1ccc(Cl)s1 [Entry 110, 2-[4-(5-[(5-chlorothiophen-2-yl)methyl]amino-1-(3-hydroxy-2,2-dimethylpropanoyl)-1H-pyrazol-3-yl)piperidin-1-yl]acetic acid]",–
1000 to 10000,"COc1ccccc1C(=O)n1nc(C2CCCN2C(=O)OC(C)(C)C)cc1NCc1ccc(Cl)s1 (stereo not drawn) [Entry 273, tert-butyl 2-(5-[(5-chlorothiophen-2-yl)methyl]amino-1-(2-methoxybenzoyl)-1H-pyrazol-3-yl)pyrrolidine-1-carboxylate]",–
< 100,"CC(C)(C)OC(=O)N1CCC(c2cc(NCc3ccc(Cl)s3)n(C(=O)C(C)(C)CO)n2)CC1 [Entry 297, tert-butyl 4-(5-[(5-chlorothiophen-2-yl)methyl]amino-1-(3-hydroxy-2,2-dimethylpropanoyl)-1H-pyrazol-3-yl)piperidine-1-carboxylate]",–
< 100,"COCC(C)(C)C(=O)n1nc(C2CCCN(C(=O)OC(C)(C)C)C2)cc1NCc1ccc(Cl)s1 (stereo not drawn) [Entry 285, tert-butyl 3-(5-[(5-chlorothiophen-2-yl)methyl]amino-1-(3-methoxy-2,2-dimethylpropanoyl)-1H-pyrazol-3-yl)piperidine-1-carboxylate]",–
